Experiments:
Experiment in all cases: relative viability (nuclei count vs DMSO), 5 days (fraction); higher = more cells survive
[1] = compound: C1CC1C(=O)NC2=NNC3=C2C=CC(=C3)C4=CC(=CC=C4)C(=O)NC5CC5 [XMD13-2] + CC1(C)CCC(c2ccc(Cl)cc2)=C(CN2CCN(c3ccc(C(=O)NS(=O)(=O)c4ccc(N[C@H](CCN5CCOCC5)CSc5ccccc5)c(S(=O)(=O)C(F)(F)F)c4)cc3)CC2)C1 [Navitoclax] (partner 0.5 µM)
Procedure, shortened: (§1)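 Relative viability is defined as nuclei in treated wells over nuclei in vehicle wells. Duplicate plates were run and medians reported. Lung cancer cell lines in 1536-well plates were dosed by pin tool one day after seeding, with one drug or with a fixed anchor-drug dose plus five library-drug doses (not always all listed) in √10 steps, and nuclei were counted after 5 days.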

[2] = compound: C1CC1C(=O)NC2=NNC3=C2C=CC(=C3)C4=CC(=CC=C4)C(=O)NC5CC5 [XMD13-2] + C[C@]1(O)C[C@@H](c2nc(-c3ccc4ccc(-c5ccccc5)nc4c3)c3c(N)nccn32)C1 [Linsitinib] (partner 1 µM)
Procedure, shortened: as §1

[3] = compound: Cc1nc(Nc2ncc(C(=O)Nc3c(C)cccc3Cl)s2)cc(N2CCN(CCO)CC2)n1 [Dasatinib] + COc1cc2c(Oc3ccc(NC(=O)C4(C(=O)Nc5ccc(F)cc5)CC4)cc3F)ccnc2cc1OCCCN1CCOCC1 [Foretinib] (partner 0.25 µM)
Procedure, shortened: as §1

[4] = compound: Cc1ccc(C(=O)Nc2cccc(C(F)(F)F)c2)cc1Nc1cncc(C(N)=O)c1 [ALW-II-49-7] + O=C(CCCCCCC(=O)Nc1ccccc1)NO [Vorinostat] (partner 1 µM)
Procedure, shortened: as §1

Row | Cell Line | relative viability ([1]; first compound 0.05 µM) | relative viability ([1]; first compound 0.1581 µM) | relative viability ([1]; first compound 0.5 µM) | relative viability ([1]; first compound 1.581 µM) | relative viability ([1]; first compound 5 µM) | relative viability ([2]; first compound 0.05 µM) | relative viability ([2]; first compound 0.1581 µM) | relative viability ([2]; first compound 0.5 µM) | relative viability ([2]; first compound 1.581 µM) | relative viability ([2]; first compound 5 µM) | relative viability ([3]; first compound 0.005 µM) | relative viability ([3]; first compound 0.01581 µM) | relative viability ([3]; first compound 0.05 µM) | relative viability ([3]; first compound 0.1581 µM) | relative viability ([3]; first compound 0.5 µM) | relative viability ([4]; first compound 0.08 µM) | relative viability ([4]; first compound 0.253 µM) | relative viability ([4]; first compound 0.8 µM) | relative viability ([4]; first compound 2.53 µM) | relative viability ([4]; first compound 8 µM)
1 | H3255 | 0.709 | 0.564 | 0.518 | 0.444 | 0.526 | 1.12 | 1 | 0.946 | 0.97 | 0.94 | 1.02 | 0.822 | 0.726 | 0.944 | 0.352 | 0.925 | 0.804 | 0.813 | 0.735 | 0.686
2 | EPLC-272H | 1.23 | 1.13 | 1.26 | 0.814 | 0.649 | 1.21 | 1.08 | 1.25 | 1.06 | 0.284 | 0.769 | 0.631 | 0.634 | 0.214 | 0.127 | 0.37 | 0.436 | 0.352 | 0.32 | 0.301
3 | NCI-H647 | 1.21 | 1.08 | 1.23 | 1.15 | 0.735 | 1.33 | 1.22 | 1.15 | 1.17 | 1.09 | 1.11 | 1.17 | 0.649 | 0.276 | 0.252 | 0.539 | 0.642 | 0.599 | 0.321 | 0.349
4 | LXF-289 | 0.965 | 0.956 | 0.988 | 0.914 | 0.93 | 0.941 | 0.942 | 0.967 | 0.984 | 0.986 | 1.01 | 0.983 | 0.914 | 0.513 | 0.125 | 0.726 | 0.877 | 0.81 | 0.854 | 0.762
5 | NCI-H1755 | 1.03 | 0.985 | 1.07 | 1.01 | 0.986 | 1.04 | 0.942 | 1.06 | 0.963 | 1.02 | 0.778 | 0.706 | 0.617 | 0.463 | 0.185 | 0.88 | 0.83 | 0.783 | 0.685 | 0.608
6 | HCC-15 | 0.792 | 0.661 | 0.704 | 0.725 | 0.535 | 0.936 | 0.869 | 0.903 | 0.947 | 0.599 | 1.09 | 0.919 | 0.876 | 0.719 | 0.57 | 0.913 | 0.807 | 0.916 | 0.802 | 0.893
7 | EMC-BAC-2 | 1.29 | 1.22 | 1.21 | 1.18 | 1.27 | 0.912 | 0.82 | 0.841 | 0.848 | 0.689 | 0.862 | 0.733 | 0.573 | 0.297 | 0.242 | 0.462 | 0.419 | 0.301 | 0.409 | 0.281
8 | NCI-H1734 | 1 | 0.883 | 0.881 | 0.8 | 0.741 | 0.893 | 0.996 | 0.938 | 0.784 | 0.743 | 0.743 | 0.613 | 0.586 | 0.427 | 0.367 | 0.763 | 0.8 | 0.78 | 0.795 | 0.727
